The target in series [1] is T1, S1S3 (Homo sapiens, UniProt Q3T906).
T1 construct: gene GNPTAB; soluble truncation, no TM domains; S1 (233 aa) replaced by 29-aa Dictyostelium discoideum PTase linker; Notch1 to S1P site deleted, GGSGG linker; melittin signal, N-HA, C-HPC4; secreted from T. ni cells; single chain, dimer
As to the kind of experiment: UDP-[3H]GlcNAc radiolabel transfer assay, QAE-Sephadex. The format is biochemical. The note with it: saturating UDP-[3H]GlcNAc; Mn2+ and Mg2+, pH 7.4, 37 °C (general assay); mean of two assays.

For series [2], the target named is T2, Dm PTase (Drosophila melanogaster, UniProt A1Z7S7).
T2 construct: gene Gnptab; soluble, without N- and C-terminal TM domains and cytosolic tails; melittin signal, N-HA, C-HPC4; secreted from T. ni cells; single chain; H375 and F378 correspond to human H956 and H959
T2 sequence (A1Z7S7 47-630 limits assumed): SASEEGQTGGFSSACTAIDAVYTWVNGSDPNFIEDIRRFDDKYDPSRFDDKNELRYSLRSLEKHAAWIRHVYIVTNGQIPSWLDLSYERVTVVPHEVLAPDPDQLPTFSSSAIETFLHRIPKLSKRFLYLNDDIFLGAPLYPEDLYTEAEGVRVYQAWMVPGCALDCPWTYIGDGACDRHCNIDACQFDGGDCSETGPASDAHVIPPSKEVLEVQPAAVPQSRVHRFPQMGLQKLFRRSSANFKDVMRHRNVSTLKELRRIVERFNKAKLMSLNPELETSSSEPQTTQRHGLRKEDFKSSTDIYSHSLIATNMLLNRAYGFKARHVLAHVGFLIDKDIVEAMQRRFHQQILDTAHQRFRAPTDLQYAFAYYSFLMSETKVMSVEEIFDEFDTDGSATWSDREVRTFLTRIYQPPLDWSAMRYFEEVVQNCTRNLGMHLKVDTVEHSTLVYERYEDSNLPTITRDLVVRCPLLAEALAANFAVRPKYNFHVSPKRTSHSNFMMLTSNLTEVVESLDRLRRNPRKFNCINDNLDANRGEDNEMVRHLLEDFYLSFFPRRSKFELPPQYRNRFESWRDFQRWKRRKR
As to the kind of experiment: PTase activity assay, UDP-[3H]GlcNAc. In kind it is biochemical. The note with it: donor, labelled compound; acceptor 100 mM α-MM.

In series [3] the target is T3, hPTase-αβ (soluble full-length human GlcNAc-1-phosphotransferase) (Homo sapiens, UniProt Q3T906).
T3 construct: gene GNPTAB; soluble secreted form of the alpha/beta precursor, cut by site-1 protease at K928/D929; no gamma subunit; dimer
T3 sequence (Q3T906 44-928 limits assumed): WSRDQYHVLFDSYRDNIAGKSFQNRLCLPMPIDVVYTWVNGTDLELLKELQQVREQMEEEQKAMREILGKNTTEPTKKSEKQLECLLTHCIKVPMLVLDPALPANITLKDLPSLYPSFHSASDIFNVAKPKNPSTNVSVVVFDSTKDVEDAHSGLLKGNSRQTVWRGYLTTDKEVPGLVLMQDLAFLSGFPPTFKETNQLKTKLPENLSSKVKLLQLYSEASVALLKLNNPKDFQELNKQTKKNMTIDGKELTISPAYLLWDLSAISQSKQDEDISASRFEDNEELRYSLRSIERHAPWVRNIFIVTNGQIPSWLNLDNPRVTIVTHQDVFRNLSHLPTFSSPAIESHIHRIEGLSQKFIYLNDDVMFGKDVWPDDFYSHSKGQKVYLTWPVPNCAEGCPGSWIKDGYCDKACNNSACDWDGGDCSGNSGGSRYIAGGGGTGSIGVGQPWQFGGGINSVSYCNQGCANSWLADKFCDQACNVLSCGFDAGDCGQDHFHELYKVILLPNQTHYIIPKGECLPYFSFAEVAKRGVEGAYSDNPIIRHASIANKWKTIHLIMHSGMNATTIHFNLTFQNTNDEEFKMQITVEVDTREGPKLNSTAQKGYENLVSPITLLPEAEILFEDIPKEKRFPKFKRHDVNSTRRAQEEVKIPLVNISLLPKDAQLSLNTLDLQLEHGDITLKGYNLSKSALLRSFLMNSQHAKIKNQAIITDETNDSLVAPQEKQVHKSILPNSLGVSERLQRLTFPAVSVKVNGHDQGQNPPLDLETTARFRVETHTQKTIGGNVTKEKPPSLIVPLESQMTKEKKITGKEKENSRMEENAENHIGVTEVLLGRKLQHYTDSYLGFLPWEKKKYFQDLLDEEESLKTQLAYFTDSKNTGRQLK
T3 sequence (Q3T906 929-1214 limits assumed): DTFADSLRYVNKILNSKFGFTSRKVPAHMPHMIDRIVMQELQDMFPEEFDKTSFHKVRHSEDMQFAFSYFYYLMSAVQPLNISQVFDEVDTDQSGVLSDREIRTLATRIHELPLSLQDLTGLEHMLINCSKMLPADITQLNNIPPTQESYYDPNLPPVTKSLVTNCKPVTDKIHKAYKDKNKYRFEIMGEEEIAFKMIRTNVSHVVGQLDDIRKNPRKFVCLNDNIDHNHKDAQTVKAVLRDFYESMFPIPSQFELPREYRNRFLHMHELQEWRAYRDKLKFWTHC
As to the kind of experiment: cryo-EM structure, […] Å. In kind it is binding. The note with it: 10 mM UDP-GlcNAc, 10 mM MnCl2, 6 h at 4 °C; donor site in the catalytic pocket with two Mn2+.

Series [4] addresses soluble S1S3, truncated hyperactive variant of human GlcNAc-1-phosphotransferase (PTase) αβ lacking both transmembrane domains and cytosolic tails (human | Dictyostelium discoideum). Description: cryo-EM structure; single-particle cryo-EM of purified soluble S1S3 at 0.8 mg/ml; 3.4 Å.
In series [5] the target is T4, S1S3 (Homo sapiens, UniProt Q3T906, H959F).
T4 construct: gene GNPTAB; soluble truncation, no TM domains; S1 (233 aa) replaced by 29-aa Dictyostelium discoideum PTase linker; Notch1 to S1P site deleted, GGSGG linker; melittin signal, N-HA, C-HPC4; secreted from T. ni cells; single chain, dimer
T4 sequence (Q3T906 929-1214 H959F limits assumed, one chain of several): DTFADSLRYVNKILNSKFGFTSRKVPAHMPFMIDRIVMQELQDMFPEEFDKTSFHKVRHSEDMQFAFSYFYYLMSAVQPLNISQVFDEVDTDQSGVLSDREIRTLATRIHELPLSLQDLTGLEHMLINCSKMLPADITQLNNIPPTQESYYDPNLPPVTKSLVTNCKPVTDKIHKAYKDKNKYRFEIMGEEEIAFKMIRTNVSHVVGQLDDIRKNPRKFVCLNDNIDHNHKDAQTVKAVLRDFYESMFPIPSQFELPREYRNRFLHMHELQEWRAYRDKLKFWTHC
As to the kind of experiment: PTase activity assay, UDP-[3H]GlcNAc. In kind it is biochemical. The note with it: H279 = H959 of full-length hPTase.

Substrate in series [6]: CO[C@H]1O[C@H](CO)[C@@H](O)[C@H](O)[C@@H]1O
As to the kind of experiment: UDP-[3H]GlcNAc radiolabel transfer assay, QAE-Sephadex. The format is biochemical, Homo sapiens. The note with it: saturating UDP-[3H]GlcNAc, Mn2+ and Mg2+, pH 7.4, 37 °C (general assay), mean of two assays.

The values below come from article PMC11418123, “Structure of a truncated human GlcNAc-1-phosphotransferase variant reveals the basis for its hyperactivity” (The Journal of Biological Chemistry, 2024).

With `OC[C@H]1O[C@H](O[C@@H]2C(O)O[C@H](CO)[C@@H](O)[C@@H]2O)[C@@H](O)[C@@H](O)[C@@H]1O` (stereo partly drawn) [mannobiose, 2-α-mannobiose], the Km in series [1] came to 53.6 mM.
In the case of `CC(=O)N[C@H]1[C@@H](OP(=O)(O)OP(=O)(O)OC[C@H]2O[C@@H](n3ccc(=O)[nH]c3=O)[C@H](O)[C@@H]2O)O[C@H](CO)[C@@H](O)[C@@H]1O` [UDP-GlcNAc], the “PTase activity assay, UDP-[3H]GlcNAc” value in series [2] is listed as “Dm PTase is capable of using UDP-GlcNAc as a nucleotide sugar donor”. In series [3], the “cryo-EM structure, 2.9 Å” value was “we resolved the cryo-EM structure of hPTase in the presence of the nucleotide donor sugar”.
In series [4], “soluble S1S3, truncated hyperactive variant of human GlcNAc-1-phosphotransferase (PTase) αβ lacking both transmembrane domains and cytosolic tails (enzyme)” had a stoichiometry N of 2.
In the case of `CC(=O)N[C@H]1[C@H](O[C@H]2[C@H](O)[C@@H](NC(C)=O)C(O)O[C@@H]2CO)O[C@H](CO)[C@@H](O[C@@H]2O[C@H](CO[C@H]3O[C@H](CO[C@H]4O[C@H](CO)[C@@H](O)[C@H](O)[C@@H]4O[C@H]4O[C@H](CO)[C@@H](O)[C@H](O)[C@@H]4O)[C@@H](O)[C@H](O[C@H]4O[C@H](CO)[C@@H](O)[C@H](O)[C@@H]4O[C@H]4O[C@H](CO)[C@@H](O)[C@H](O)[C@@H]4O)[C@@H]3O)[C@@H](O)[C@H](O[C@H]3O[C@H](CO)[C@@H](O)[C@H](O)[C@@H]3O[C@H]3O[C@H](CO)[C@@H](O)[C@H](O)[C@@H]3O[C@H]3O[C@H](CO)[C@@H](O)[C@H](O)[C@@H]3O)[C@@H]2O)[C@@H]1O` (some centres unmarked) [Man-9, Man9GlcNAc2], in series [5] (0.34 mM Man-9), the “PTase activity assay, UDP-[3H]GlcNAc” value is “The His-279-Phe mutation caused a significant decrease in activity toward the three acceptors”.
Regarding `CO[C@H]1O[C@H](CO)[C@@H](O)[C@H](O)[C@@H]1O` [α-MM, methyl α-D-mannopyranoside], the “PTase activity assay, UDP-[3H]GlcNAc” value in series [5] (100 mM α-MM) was “The His-279-Phe mutation caused a significant decrease in activity toward the three acceptors”.

B1: hPTase-αβ (soluble full-length human GlcNAc-1-phosphotransferase) (Homo sapiens) (protein)
chain 1: WSRDQYHVLFDSYRDNIAGKSFQNRLCLPMPIDVVYTWVNGTDLELLKELQQVREQMEEEQKAMREILGKNTTEPTKKSEKQLECLLTHCIKVPMLVLDPALPANITLKDLPSLYPSFHSASDIFNVAKPKNPSTNVSVVVFDSTKDVEDAHSGLLKGNSRQTVWRGYLTTDKEVPGLVLMQDLAFLSGFPPTFKETNQLKTKLPENLSSKVKLLQLYSEASVALLKLNNPKDFQELNKQTKKNMTIDGKELTISPAYLLWDLSAISQSKQDEDISASRFEDNEELRYSLRSIERHAPWVRNIFIVTNGQIPSWLNLDNPRVTIVTHQDVFRNLSHLPTFSSPAIESHIHRIEGLSQKFIYLNDDVMFGKDVWPDDFYSHSKGQKVYLTWPVPNCAEGCPGSWIKDGYCDKACNNSACDWDGGDCSGNSGGSRYIAGGGGTGSIGVGQPWQFGGGINSVSYCNQGCANSWLADKFCDQACNVLSCGFDAGDCGQDHFHELYKVILLPNQTHYIIPKGECLPYFSFAEVAKRGVEGAYSDNPIIRHASIANKWKTIHLIMHSGMNATTIHFNLTFQNTNDEEFKMQITVEVDTREGPKLNSTAQKGYENLVSPITLLPEAEILFEDIPKEKRFPKFKRHDVNSTRRAQEEVKIPLVNISLLPKDAQLSLNTLDLQLEHGDITLKGYNLSKSALLRSFLMNSQHAKIKNQAIITDETNDSLVAPQEKQVHKSILPNSLGVSERLQRLTFPAVSVKVNGHDQGQNPPLDLETTARFRVETHTQKTIGGNVTKEKPPSLIVPLESQMTKEKKITGKEKENSRMEENAENHIGVTEVLLGRKLQHYTDSYLGFLPWEKKKYFQDLLDEEESLKTQLAYFTDSKNTGRQLK
chain 2: DTFADSLRYVNKILNSKFGFTSRKVPAHMPHMIDRIVMQELQDMFPEEFDKTSFHKVRHSEDMQFAFSYFYYLMSAVQPLNISQVFDEVDTDQSGVLSDREIRTLATRIHELPLSLQDLTGLEHMLINCSKMLPADITQLNNIPPTQESYYDPNLPPVTKSLVTNCKPVTDKIHKAYKDKNKYRFEIMGEEEIAFKMIRTNVSHVVGQLDDIRKNPRKFVCLNDNIDHNHKDAQTVKAVLRDFYESMFPIPSQFELPREYRNRFLHMHELQEWRAYRDKLKFWTHC
notes: soluble secreted form of the alpha/beta precursor, cut by site-1 protease at K928/D929; no gamma subunit; dimer
Consider B1, for which, in series [6], the Km is given as 57,100 μM and the kcat amounted to 0.153 s⁻¹.
